Experimental data taken from PubChem BioAssay (NCI).
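Where inhibition never reached the appropriate level, the endpoint shown equals the highest concentration tested. Otherwise, values were interpolated linearly from a five-concentration, 48-hour dose response in 96-well plates. GI50 marks 50% less growth. TGI: total growth inhibition.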

Legend:
Assay in all cases: NCI anticancer screen, dose series, 48 h
CAKI-1 renal = test system: CAKI-1 renal
HCC-2998 colon = test system: HCC-2998 colon
K-562 leukemia = test system: K-562 leukemia
M14 melanoma = test system: M14 melanoma
MALME-3M melanoma = test system: MALME-3M melanoma
NCI-H226 lung = test system: NCI-H226 lung
NCI-H23 lung = test system: NCI-H23 lung
SK-MEL-2 melanoma = test system: SK-MEL-2 melanoma
SNB-75 CNS = test system: SNB-75 CNS
SR leukemia = test system: SR leukemia

Compound	GI50 (CAKI-1 renal)	TGI (CAKI-1 renal)	GI50 (HCC-2998 colon)	TGI (HCC-2998 colon)	GI50 (K-562 leukemia)	TGI (K-562 leukemia)	GI50 (M14 melanoma)	TGI (M14 melanoma)	GI50 (MALME-3M melanoma)	TGI (MALME-3M melanoma)	GI50 (NCI-H226 lung)	TGI (NCI-H226 lung)	GI50 (NCI-H23 lung)	TGI (NCI-H23 lung)	GI50 (SK-MEL-2 melanoma)	TGI (SK-MEL-2 melanoma)	GI50 (SNB-75 CNS)	TGI (SNB-75 CNS)	GI50 (SR leukemia)	TGI (SR leukemia)
COc1ccc(C(=O)Cn2c(C(=O)c3ccccc3)nc(-c3ccc(OC)cc3)c2-c2ccc(OC)cc2)cc1	52.7 µM	> 100 µM	> 100 µM	> 100 µM	> 100 µM	> 100 µM	> 100 µM	> 100 µM	> 100 µM	> 100 µM	> 100 µM	> 100 µM	> 100 µM	> 100 µM	66 µM	> 100 µM	7.71 µM	38.4 µM	–	–
COC1(OC)CCC2C1C1CCC(OC)(OC)C21 (stereo unspecified)	–	> 50 µM	–	> 50 µM	–	> 50 µM	–	> 50 µM	–	> 50 µM	–	> 50 µM	–	> 50 µM	–	> 50 µM	–	> 50 µM	–	–
COc1cc(CNc2cnc3cc(N)cc(N)c3n2)cc(OC)c1	24.8 µM	52.3 µM	11.7 µM	25 µM	11.3 µM	47 µM	18.1 µM	33.8 µM	–	–	17.4 µM	55.3 µM	17.3 µM	39.8 µM	66.7 µM	> 100 µM	–	–	18.8 µM	> 100 µM
Cc1ccc(N=Nc2ccc(N(CCC#N)CCC#N)cc2C)c(Br)c1	–	24.6 µM	–	59.4 µM	–	> 100 µM	–	92.3 µM	–	> 100 µM	–	61.5 µM	–	> 100 µM	–	> 100 µM	–	> 100 µM	–	–
Cn1cc(C2=C(c3cn(C)c4ncccc34)C(=O)NC2=O)c2ccccc21	4.79 µM	> 17.2 µM	> 21.2 µM	> 25 µM	6.99 µM	> 25 µM	9.74 µM	> 25 µM	8.5 µM	20 µM	5.45 µM	16.5 µM	14.3 µM	> 25 µM	6.31 µM	12.8 µM	0.669 µM	> 23.6 µM	–	–
CCCCOC(=O)C1OC(O[C@H]2CCC3(C)C(CCC4(C)C3CC=C3C5CC(C)(C)CCC5(C(=O)O)CC[C@]34C)C2(C)C)C(OC2OC(CO)C(O)C(O)C2O)C(OC2OC(CO)C(O)C(O)C2O)C1O (stereo partly specified)	33.4 µM	95.4 µM	21.8 µM	38.1 µM	23.2 µM	> 100 µM	17.8 µM	32.7 µM	–	–	29.2 µM	66.1 µM	22.8 µM	47.6 µM	40.9 µM	> 100 µM	–	–	–	–
O=S1(=O)c2ccccc2NC(c2ccc3ccccc3c2)CC1c1ccccc1F (stereo unspecified)	–	> 100 µM	–	> 100 µM	–	> 100 µM	–	> 100 µM	–	> 100 µM	–	> 100 µM	–	> 100 µM	–	> 100 µM	–	> 100 µM	–	–
CCCCCN(CCCCC)CCCNc1c2c(nc3ccc(Cl)cc13)CCCC2	2.18 µM	6.83 µM	2.48 µM	8.89 µM	–	–	1.8 µM	3.41 µM	2.54 µM	6.01 µM	2.05 µM	6.71 µM	2.12 µM	6.73 µM	2.05 µM	3.99 µM	2.38 µM	11.9 µM	–	–
Clc1ccc2c(NCCCCNc3nc(N4CCCCC4)nc4ccccc34)ccnc2c1	–	–	1.96 µM	4.23 µM	1.34 µM	4.1 µM	1.62 µM	3.14 µM	1.85 µM	3.48 µM	3.85 µM	16.5 µM	4.67 µM	19.2 µM	1.98 µM	4.02 µM	1.32 µM	3.13 µM	0.408 µM	2.88 µM
O=CC[C@H]1C(=O)C[C@@H]2CCC[C@@H]21	–	> 100 µM	–	> 100 µM	–	> 100 µM	–	> 100 µM	–	> 100 µM	–	> 100 µM	–	> 100 µM	–	> 100 µM	–	> 100 µM	–	–
O=C(O)c1ccccc1[Se][Se]c1ccccc1C(=O)O	–	> 100 µM	–	> 100 µM	–	> 100 µM	–	> 100 µM	–	> 100 µM	–	31.4 µM	–	> 100 µM	–	> 100 µM	–	> 100 µM	–	–
C=C(CN1CCN(c2ccc(Cl)cc2F)CC1)c1ccc(C(=O)Nc2ccccc2N)cc1	2.72 µM	> 100 µM	3.84 µM	> 60.5 µM	1.12 µM	> 100 µM	2.03 µM	–	1.92 µM	> 100 µM	3.29 µM	> 100 µM	3.13 µM	> 100 µM	6.95 µM	> 100 µM	11.4 µM	> 46.1 µM	–	–
CC1=C(C(=O)Nc2ccc(Cl)c(Cl)c2)C(c2cccc(Oc3ccccc3)c2)NC(=S)N1 (stereo unspecified)	8.48 µM	15.4 µM	–	–	12.4 µM	> 50 µM	9.21 µM	20.1 µM	–	–	9.68 µM	19.5 µM	–	–	9.38 µM	18.9 µM	8.26 µM	18.4 µM	44.9 µM	> 50 µM
CCCCCCCCCCCOc1ccc(C(=O)C(=O)c2ccc(OCCCCCCCCCCC)c(OCCCCCCCCCCC)c2)cc1OCCCCCCCCCCC	–	> 100 µM	–	> 100 µM	–	> 100 µM	–	> 100 µM	–	> 100 µM	–	> 100 µM	–	> 100 µM	–	> 100 µM	–	95.7 µM	–	–
C/C(CC(=O)CCC(=O)Nc1cccc(C(F)(F)F)c1)=N\NC(=O)NN	–	> 100 µM	–	> 100 µM	–	> 100 µM	–	> 100 µM	–	> 100 µM	–	> 100 µM	–	> 100 µM	–	> 100 µM	–	> 100 µM	–	–
COc1ccccc1C12OC(=O)C1(C)Oc1ccccc1C2=O (stereo unspecified)	–	–	–	> 100 µM	–	> 100 µM	–	> 100 µM	–	> 100 µM	–	> 100 µM	–	> 100 µM	–	> 100 µM	–	> 100 µM	–	–
COc1cc(Cc2cnc(/N=C3\C(=O)N(CN4CCN(c5c(F)cc6c(=O)c(C(=O)O)cn(C7CC7)c6c5OC)CC4C)c4ccc(F)cc43)nc2N)cc(OC)c1OC (stereo unspecified)	15.5 µM	36 µM	12.6 µM	26.1 µM	6.41 µM	> 100 µM	10.3 µM	22 µM	–	–	13.8 µM	43.3 µM	18.1 µM	42.9 µM	37.8 µM	> 100 µM	–	–	–	–
